These results are taken from article PMC12797170, “Potent Competitive Inhibitors of Ecto-5′-nucleotidase (CD73) based on 6‑(Het)aryl-7-deazapurine Ribonucleoside 5′‑O‑Bisphosphonates” (ACS Pharmacology & Translational Science, 2025).

Series [1] can be described thus: Plasma protein binding, equilibrium dialysis, human plasma. The class given is in vitro ADME. The note with it: undiluted plasma. A general note: Equilibrium dialysis compares concentrations on both sides of a semipermeable membrane.
The nature of series [2]: Kinetic solubility in PBS. The class given is physicochemical. The conditions noted are these: phosphate-buffered saline, pH 7.4, aqueous buffer, kinetic from dmso stock. A digest of the protocol:
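DMSO stocks diluted into PBS pH 7.4 to 100 μM and shaken 2 h at room temperature in duplicate, then filtered by centrifugation. Filtrates diluted 1:99 in 50% acetonitrile. Quantified by Echo-MS against calibration standards spanning 0.05–4 μM.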

Series [3] deals with hERG potassium channel (Homo sapiens, UniProt Q12809). In words: hERG inhibition assay (thallium flux, HEK293-hERG cells). The series is classed as cell-based. The conditions noted are these: for inhibition of hERG: at 100 μM. How it is done: The study was performed by Bienta (Enamine Biology Services). HEK293-hERG cells (stably expressing human potassium channel hERG – human Ether-a-go-go Related Gene) were cultured in DMEM/F-12 medium supplemented with 10% FBS, 100 U/mL penicillin, 100 μg/mL streptomycin, and 500 μg/mL G418. The assay was performed according to the manufacturer’s instructions. Cells were seeded into a 384-well poly-D-lysine, clear-bottom microtiter plate (8000 cells/well) in DMEM/F-12 medium supplemented with 5% FBS, 100 U/mL penicillin, 100 μg/mL streptomycin 24 h prior to assay. After 24 h of cell growth, the conditioned medium was substituted with the Dye Loading Solution comprising thallium-sensitive dye, followed by incubation for 1 h in a CO2 incubator. After the incubation, the Dye Loading Solution was substituted with a 15 μL/well mixture of the Assay Buffer and the TRS. Then, 5 μL of the test compound diluted in the assay buffer (0.5% DMSO final concentration) was added to each well of the plate and incubated at room temperature for 30 min hERG inhibition by test compounds was assessed at 3 concentrations of 10–50–100 μM. All test points were performed in quadruplicates. […] DMSO was used as a negative control, and Haloperidol was used as a reference compound to verify the assay validity. Haloperidol was dissolved in 100% DMSO at a concentration of 20 mM and stored at – 20 °C (for no more than a month). Haloperidol was assessed at the final concentrations ranging from 0.023 μM to 50.0 μM (8 points, 3-fold serial dilutions). The test compounds were dissolved in 100% DMSO at a concentration of 20 mM.
Sequence of hERG potassium channel (Q12809 whole entry): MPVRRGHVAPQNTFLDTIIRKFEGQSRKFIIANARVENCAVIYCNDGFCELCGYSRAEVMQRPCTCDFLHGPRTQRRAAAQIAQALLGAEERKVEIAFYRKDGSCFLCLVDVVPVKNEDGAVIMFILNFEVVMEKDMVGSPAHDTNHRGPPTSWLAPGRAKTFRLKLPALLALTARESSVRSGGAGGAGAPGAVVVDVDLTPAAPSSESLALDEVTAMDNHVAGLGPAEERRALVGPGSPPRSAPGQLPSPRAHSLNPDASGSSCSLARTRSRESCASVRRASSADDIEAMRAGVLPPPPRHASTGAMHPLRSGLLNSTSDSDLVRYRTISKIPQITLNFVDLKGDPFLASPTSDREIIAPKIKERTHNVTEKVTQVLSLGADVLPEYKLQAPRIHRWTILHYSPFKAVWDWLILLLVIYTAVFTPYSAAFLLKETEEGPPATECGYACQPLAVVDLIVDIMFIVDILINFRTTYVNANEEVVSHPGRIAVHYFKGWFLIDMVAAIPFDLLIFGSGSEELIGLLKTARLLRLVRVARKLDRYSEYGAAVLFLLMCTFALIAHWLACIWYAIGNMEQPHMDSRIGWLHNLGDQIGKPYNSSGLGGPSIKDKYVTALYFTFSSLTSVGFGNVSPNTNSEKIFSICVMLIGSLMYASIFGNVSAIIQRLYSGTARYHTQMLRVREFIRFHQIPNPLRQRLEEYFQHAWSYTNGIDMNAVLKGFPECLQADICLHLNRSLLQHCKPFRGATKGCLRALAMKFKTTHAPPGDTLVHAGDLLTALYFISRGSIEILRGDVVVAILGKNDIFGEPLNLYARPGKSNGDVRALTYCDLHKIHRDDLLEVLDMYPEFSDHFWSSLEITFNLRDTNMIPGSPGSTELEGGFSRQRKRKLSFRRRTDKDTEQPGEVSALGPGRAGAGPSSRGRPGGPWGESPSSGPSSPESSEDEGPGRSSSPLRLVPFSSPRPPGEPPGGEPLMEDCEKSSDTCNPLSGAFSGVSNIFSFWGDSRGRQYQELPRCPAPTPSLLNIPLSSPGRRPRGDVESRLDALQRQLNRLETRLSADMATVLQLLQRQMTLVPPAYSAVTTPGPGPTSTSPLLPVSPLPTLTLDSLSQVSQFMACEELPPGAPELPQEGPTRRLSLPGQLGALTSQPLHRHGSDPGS

In series [4] the test system is MDA-MB-231 breast cancer cell line. Kind of series: CellTox Green cytotoxicity assay. The note with it: 24 h. The class given is cell-based, human. The procedure:
MDA-MB-231 cells were harvested and counted using an automated cell counter. A total of 2,500 cells per well were seeded in 20 μL of phenol red-free complete RPMI medium into black 384-well plates. Five μL of CD73 inhibitors (final concentration: […]) or 5 μL PBS (negative control) were added to each well, except for wells designed as maximal signal (dead cell) controls. Plates were incubated for 24 h at 37 °C in a humidified CO2 incubator. To generate the maximum signal control, 5 μL of lysis buffer (CellTox Green Cytotoxicity Assay, Promega) was added to the dead cell controls, followed by a 30 min incubation at room temperature. Subsequently, 25 μL/well of CellTox Green Dye (diluted 1:500 in the assay buffer; Promega) was added. Plates were incubated in the dark on an orbital shaker at 500–700 rpm for 15 min. Fluorescence was measured using an Infinite M1000 plate reader (Tecan) with excitation at 485–500 nm and emission at 520–530 nm. Data were analyzed in GraphPad Prism 10.
Figure S2: Effect of CD73 inhibition on the viability of CD73-expressing breast cancer cell line. MDA-MB-231 cells were incubated with 10 µM CD73 inhibitors for 24 hours. Viability was assessed using the CellTox™ Green Cytotoxicity Assay.
± s.d. of technical triplicates (s.d., standard deviation).
(1 picture or pasted object on this page, not shown here)

Series [5] in a line: in vitro. The conditions noted are these: human, plasma.
Series [6] can be described thus: in vitro. The note with it: mouse, plasma.
Series [7] is described as follows: Microsomal stability assay, mouse liver microsomes. The class given is in vitro ADME. The note with it: for Mics (m) comp remaining 60 min: 10 μM; for microsomal CLint at 10 µM: pooled liver microsomes, pH 7.4, read-out: Mics (m) CLint. (Liver microsomes are a subcellular fraction often used to study metabolism.)
Setting [8] is: Tables 1 and 3, human plasma as printed in footnote, read-out: fup, fraction unbound in human plasma.
[9] abbreviates: human plasma protein binding, read-out: PPB (hu) (converted).

Structures are written as SMILES. ≈ marks a conversion by molar mass, not a printed value. Where two headings read alike, the source gives them in different places.

What is called solubility is the dissolved amount per volume that the medium holds. A lower solubility goes with little dissolved substance. Broadly, the half-life is the time needed for the level to fall by half in the phase considered. A higher half-life goes with slow loss. Take `O=P(O)(O)CP(=O)(O)OC[C@H]1O[C@@H](n2ccc3c(-c4ccc5ccccc5c4)ncnc32)[C@H](O)[C@@H]1O` [4A.7]: the fraction unbound at 4 h, 100 µM in series [1] (setting [8]) was 0.31; in series [1] (setting [9]) it was 0.011. Further, the solubility at 2 h in series [2] is over 100 µM. For the same compound, the “hERG % inhibition at 100 µM” value in series [3] was found to be 1%. In addition, the “inhibition of hERG” value in series [3] is “no inhibition”. The “in vitro cytotoxicity against MDA-MB-231” value in series [4] is given as “nontoxic”. Moreover, the half-life at 10 µM in series [5] and in series [6] was over 2 h in each case.

As for `O=P(O)(O)CP(=O)(O)OC[C@H]1O[C@@H](n2ccc3c(-c4cccc5c4CCCC5)nc(Cl)nc32)[C@H](O)[C@@H]1O` [7B.12], in series [1] (setting [9]), the fraction unbound at 4 h, 100 µM is 0.005. Also, the solubility at 2 h in series [2] was 85 µM (≈ 48.8 µg/mL). Also, in series [7], the “Mics (m) comp remaining 60 min” value came out at 117% and the microsomal CLint at 10 µM is under 1 µL/min/mg. For the same compound, in series [3], the “hERG % inhibition at 100 µM” value is given as 3% and the “inhibition of hERG” value is “no inhibition”. For the same compound, in series [4], the “in vitro cytotoxicity against MDA-MB-231” value is on record as “nontoxic”. This compound showed a half-life at 10 µM in series [5] of over 2 h. Besides, the half-life at 10 µM in series [6] is over 2 h.

Take `O=P(O)(O)CP(=O)(O)OC[C@H]1O[C@@H](n2ccc3c(-c4ccc5c(c4)CCCC5)nc(I)nc32)[C@H](O)[C@@H]1O` [27H.23, [(5-{[2-Iodo-4-(5,6,7,8-tetrahydronaphthalen-2-yl)-7H-pyrrolo[2,3-d]pyrimidin-7-yl]-β-D-ribofuranosyl}oxy)phosphonomethyl]phosphonic Acid]: the fraction unbound at 4 h, 100 µM is 0.036 in series [1] (setting [8]) and at most 0.01 in series [1] (setting [9]). In series [2], this compound had a solubility at 2 h of over 100 µM. For the same compound, the microsomal CLint at 10 µM in series [7] came out at 2 µL/min/mg. Besides, the “hERG % inhibition at 100 µM” value in series [3] was 7%. In addition, the “inhibition of hERG” value in series [3] is “no inhibition”. The “in vitro cytotoxicity against MDA-MB-231” value in series [4] is “nontoxic”. Also, the half-life at 10 µM in series [5] and in series [6] was over 2 h in each case.

With `O=P(O)(O)CP(=O)(O)OC[C@H]1O[C@@H](n2ccc3c(-c4cccc5ccncc45)ncnc32)[C@H](O)[C@@H]1O` [4A.18], the fraction unbound at 4 h, 100 µM in series [1] (setting [9]) is 0.195. For the same compound, the solubility at 2 h in series [2] came to 56 µM (≈ 30 µg/mL). Further, the microsomal CLint at 10 µM in series [7] is under 1 µL/min/mg. The “hERG % inhibition at 100 µM” value in series [3] turned out to be 6%. For the same compound, the “inhibition of hERG” value in series [3] is given as “no inhibition”. For the same compound, the “in vitro cytotoxicity against MDA-MB-231” value in series [4] is on record as “nontoxic”. The half-life at 10 µM in series [5] and in series [6] was over 2 h in each case.

Consider `O=P(O)(O)CP(=O)(O)OC[C@H]1O[C@@H](n2ccc3c(-c4ccc(F)c5ccccc45)nc(Cl)nc32)[C@H](O)[C@@H]1O` [7B.28], for which the fraction unbound at 4 h, 100 µM in series [1] (setting [9]) is at most 0.01. In series [2], this compound gave a solubility at 2 h of over 100 µM. In series [7], the “Mics (m) comp remaining 60 min” value amounted to 101% and the microsomal CLint at 10 µM was under 2 µL/min/mg. Besides, in series [3], the “hERG % inhibition at 100 µM” value is reported as 6% and the “inhibition of hERG” value is recorded as “no inhibition”. The “in vitro cytotoxicity against MDA-MB-231” value in series [4] is “nontoxic”. The half-life at 10 µM in series [5] is over 2 h. The same compound came in with a half-life at 10 µM in series [6] of over 2 h.

As for `O=P(O)(O)CP(=O)(O)OC[C@H]1O[C@@H](n2ccc3c(-c4ccc5c(c4)CCCC5)nc(Cl)nc32)[C@H](O)[C@@H]1O` [7B.23], the fraction unbound at 4 h, 100 µM in series [1] (setting [9]) was at most 0.01. For the same compound, the concentration in solution in series [2] (solubility at 2 h) was 84 µM (≈ 48.2 µg/mL). For the same compound, in series [7], the “Mics (m) comp remaining 60 min” value was 123% and the microsomal CLint at 10 µM is under 1 µL/min/mg. Besides, in series [3], the “hERG % inhibition at 100 µM” value is on record as 5% and the “inhibition of hERG” value is “no inhibition”. Further, the “in vitro cytotoxicity against MDA-MB-231” value in series [4] was “nontoxic”. This compound also came in with a half-life at 10 µM in series [5] of over 2 h. Besides, the half-life at 10 µM in series [6] is over 2 h.

Consider `Cc1nc(-c2ccc3ccccc3c2)c2ccn([C@@H]3O[C@H](COP(=O)(O)CP(=O)(O)O)[C@@H](O)[C@H]3O)c2n1` [18E.7], for which, in series [1] (setting [9]), the fraction unbound at 4 h, 100 µM is 0.004. This compound yielded a solubility at 2 h in series [2] of 78 µM (≈ 42.9 µg/mL). Besides, in series [7], the “Mics (m) comp remaining 60 min” value was 97% and the microsomal CLint at 10 µM stood at 1 µL/min/mg. For the same compound, in series [4], the “in vitro cytotoxicity against MDA-MB-231” value is “nontoxic”. For the same compound, the half-life at 10 µM in series [5] is over 2 h. The half-life at 10 µM in series [6] is over 2 h.

With `Cc1nc(-c2cccc3ccccc23)c2ccn([C@@H]3O[C@H](COP(=O)(O)CP(=O)(O)O)[C@@H](O)[C@H]3O)c2n1` [18E.6], the fraction unbound at 4 h, 100 µM in series [1] (setting [9]) is 0.045. The compound also registered a solubility at 2 h in series [2] of 89 µM (≈ 48.9 µg/mL). Besides, in series [7], the “Mics (m) comp remaining 60 min” value amounted to 95% and the microsomal CLint at 10 µM was found to be 1 µL/min/mg. Further, in series [3], the “hERG % inhibition at 100 µM” value is on record as 2% and the “inhibition of hERG” value is given as “no inhibition”. Moreover, the “in vitro cytotoxicity against MDA-MB-231” value in series [4] is given as “nontoxic”. Besides, the half-life at 10 µM in series [5] is over 2 h. Moreover, the half-life at 10 µM in series [6] was over 2 h.
